# Test system: HCV genotype 1b replicon in Huh 7 cells
# Test: HCV replicon assay (luciferase readout, 1b_Huh-Luc/Neo-ET cell line)
# Type: cell-based
# Conditions: Hepatitis C virus, Huh-7, 72 h, read-out: Inhibition of HCV genotype 1b, Table 1, 72 h incubation
# Summary of the method: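 Inhibition expressed as percent of untreated control luciferase signal and fitted to a Hill-slope equation for EC50, with repeat determinations. Compounds were added in triplicate to Huh 7 cells stably expressing the genotype 1b luciferase replicon, with 72 h exposure.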
row,SMILES,EC50 [nM]
1,O=C(N[C@@H](C(=O)N1CCC[C@H]1c1ncc(-c2ccc(C3CCC(c4cnc([C@@H]5CCCN5C(=O)[C@H](NC(=O)C5CC5)c5ccccc5)o4)CC3)cc2)[nH]1)c1ccccc1)C1CC1 (stereo partly drawn) [compound 353],< 1
2,COC(=O)N[C@H](C(=O)N1CCC[C@H]1c1ncc(-c2ccc([C@H]3CC[C@H](c4cnc([C@@H]5CCCN5C(=O)[C@@H](NC(=O)OC)C(C)C)[nH]4)CC3)cc2)[nH]1)C(C)C [compound 381],< 1
3,CC(C)[C@H](NC(=O)OC(C)(C)C)C(=O)N1CCC[C@H]1c1ncc(-c2ccc([C@H]3CC[C@@H](c4cnc([C@@H]5CCCN5C(=O)[C@@H](NC(=O)OC(C)(C)C)C(C)C)[nH]4)CC3)cc2)[nH]1 [compound 384],10 to 999
4,CC(C)(C)OC(=O)N[C@@H](C(=O)N1CCC[C@H]1C(=O)N[C@H]1CC[C@@H](c2cccc(-c3cnc([C@@H]4CCCN4C(=O)[C@H](NC(=O)OC(C)(C)C)c4ccccc4)[nH]3)c2)CC1)c1ccccc1 [compound 363],< 1
5,COC(=O)N[C@@H](C(=O)N1CCC[C@H]1c1ncc(-c2ccc(C3CCC(c4cnc([C@@H]5CCCN5C(=O)[C@H](NC(=O)OC)c5ccccc5)[nH]4)CC3)cc2)[nH]1)c1ccccc1 (stereo partly drawn) [compound 373],< 1
6,COC(=O)N[C@@H](C(=O)N1CCC[C@H]1c1ncc(-c2ccc([C@H]3CC[C@@H](NC(=O)[C@@H]4CCCN4C(=O)[C@H](NC(=O)N4CCOCC4)c4ccccc4)CC3)cc2)[nH]1)c1ccccc1 [compound 370],1 to 9.9
7,CC(C)[C@H](NC(=O)OC(C)(C)C)C(=O)N1CCC[C@H]1c1ncc(-c2ccc([C@H]3CC[C@H](c4cnc([C@@H]5CCCN5C(=O)[C@@H](NC(=O)OC(C)(C)C)C(C)C)[nH]4)CC3)cc2)[nH]1 [compound 383],10 to 999
8,CC(C)(C)OC(=O)N[C@@H](C(=O)N1CCC[C@H]1c1ncc(-c2ccc(C3CCC(c4cnc([C@@H]5CCCN5C(=O)[C@H](NC(=O)OC(C)(C)C)c5ccccc5)o4)CC3)cc2)[nH]1)c1ccccc1 (stereo partly drawn) [compound 352],1 to 9.9
9,COC(=O)N[C@@H](C(=O)N1CCC[C@H]1c1ncc(C2CCC(c3ccc(-c4cnc([C@@H]5CCCN5C(=O)[C@@H](c5ccccc5)N5CCCC5)[nH]4)cc3)CC2)[nH]1)c1ccccc1 (stereo partly drawn) [compound 379],< 1
10,O=C(NC1CCC(c2ccc(-c3cnc([C@@H]4COCCN4C(=O)C(NC(=O)N4CCOCC4)c4ccccc4)[nH]3)cc2)CC1)[C@@H]1CCCN1C(=O)C(NC(=O)N1CCOCC1)c1ccccc1 (stereo partly drawn) [compound 372],1 to 9.9
11,COC(=O)N[C@@H](C(=O)N1CCC[C@H]1c1ncc(C2CCC(c3ccc(-c4cnc([C@@H]5CCCN5C(=O)[C@@H](c5ccccc5)N5CCOCC5)[nH]4)cc3)CC2)[nH]1)c1ccccc1 (stereo partly drawn) [compound 378],< 1

# Same assay, conditions: Hepatitis C virus, Huh-7, 72 h, read-out: Inhibition of HCV genotype 1b, Table 3, 72 h incubation
row,SMILES,EC50 [nM]
1,CCN(CC)[C@@H](C(=O)N1CCC[C@H]1c1ncc(C2CCN(c3c(F)cc(-c4cnc([C@@H]5CCCN5C(=O)[C@H](NC(=O)OC)c5ccccc5)[nH]4)cc3F)CC2)[nH]1)c1ccccc1 [compound 467],< 1
2,COC(=O)N[C@@H](C(=O)N1CCCC[C@H]1c1ncc(C2CCN(c3c(F)cc(-c4cnc([C@@H]5CCCN5C(=O)[C@@H](c5ccccc5)N5CCCCC5)[nH]4)cc3F)CC2)[nH]1)c1ccccc1 [compound 491],< 1
3,COC(=O)N[C@@H](C(=O)N1CCC[C@H]1c1ncc(-c2cc(F)c(N3CCC(c4cnc([C@@H]5CCCCN5C(=O)[C@H](NC(=O)OC)C(C)C)[nH]4)CC3)c(F)c2)[nH]1)c1ccccc1 [compound 501],< 1
4,COC(=O)N[C@H](C(=O)N1CCC[C@H]1c1ncc(-c2cc(F)c(N3CCC(c4cnc([C@@H]5CCCCN5C(=O)[C@@H](NC(=O)OC)C(C)C)[nH]4)CC3)c(F)c2)[nH]1)C(C)C [compound 503],< 1
5,COC(=O)N[C@@H](C(=O)N(C)[C@@H](C)c1ncc(C2CCN(c3c(F)cc(-c4cnc([C@@H]5CCCN5C(=O)[C@H](NC(=O)OC)c5ccccc5)[nH]4)cc3F)CC2)[nH]1)c1ccccc1 [compound 506],< 1
6,COC(=O)N[C@@H](C(=O)N1CCC[C@H]1c1ncc(-c2cc(F)c(N3CCC(c4cnc([C@@H]5CCCCN5C(=O)[C@@H](c5ccccc5)N5CCCCC5)[nH]4)CC3)c(F)c2)[nH]1)c1ccccc1 [compound 496],< 1
7,COC(=O)N[C@H](C(=O)N[C@@H](C)c1ncc(-c2cc(F)c(N3CCC(c4cnc([C@@H]5CCCN5C(=O)[C@@H](NC(=O)OC)C(C)C)[nH]4)CC3)c(F)c2)[nH]1)C(C)C [compound 519],< 1
8,C[C@H](NC(=O)[C@H](NC(=O)OC(C)(C)C)c1ccccc1)c1ncc(C2CCN(c3c(F)cc(-c4cnc([C@@H]5CCCN5C(=O)[C@H](NC(=O)OC(C)(C)C)c5ccccc5)[nH]4)cc3F)CC2)[nH]1 [compound 513],< 1
9,COC(=O)N[C@@H](C(=O)N1CCC[C@H]1c1ncc(-c2cc(F)c(N3CCC(c4cnc([C@@H]5CCCN5C(=O)[C@@H](c5ccccc5)N5CCCC5)[nH]4)CC3)c(F)c2)[nH]1)c1ccccc1 [compound 475],< 1

# Same assay, conditions: Hepatitis C virus, Huh-7, 72 h, read-out: Inhibition of HCV genotype 1b, Table 4, 72 h incubation
row,SMILES,EC50 [nM]
1,CC(C)[C@H](NC(=O)N1CC[C@H](O)C1)C(=O)N1CCC[C@H]1c1nc2ccc(-c3ccc(-c4ccc5nc([C@@H]6CCCN6C(=O)[C@@H](NC(=O)N6CC[C@H](O)C6)C(C)C)[nH]c5c4)cc3)cc2[nH]1 [compound 553],> 1000
2,COC(=O)N[C@H](C(=O)N1CCC[C@H]1c1nc2ccc(-c3ccc(-c4ccc5nc([C@@H]6CCCN6C(=O)[C@@H](NC(=O)OC)C6CCOCC6)[nH]c5c4)cc3)cc2[nH]1)C(C)C [compound 2040],< 1

# Same assay, conditions: Hepatitis C virus, Huh-7, 72 h, read-out: Inhibition of HCV genotype 1b, Table 5, 72 h incubation
row,SMILES,EC50 [nM]
1,COC(=O)N[C@@H](CC(C)C)C(=O)N1CCC[C@H]1c1ncc(-c2ccc(C34CCC(c5cnc([C@@H]6CCCN6C(=O)[C@H](CC(C)C)NC(=O)OC)[nH]5)(CC3)CC4)cc2)[nH]1 [compound 2091],< 1
2,COC(=O)N[C@@H](C(=O)N1CCC[C@H]1c1ncc(C23CCC(c4ccc(-c5cnc([C@@H]6CCCN6C(=O)[C@H](OC)c6ccccc6)[nH]5)cc4)(CC2)CC3)[nH]1)c1ccccc1 [compound 620],< 1
3,COC(=O)N[C@H](C(=O)N1CCC[C@H]1c1ncc(C23CCC(c4ccc(-c5cnc([C@@H]6CCCN6C(=O)[C@H](NC6CCOCC6)c6ccccc6)[nH]5)cc4)(CC2)CC3)[nH]1)C(C)C [compound 2068],< 1
4,CC(C)[C@H](NC(=O)N1CCC(O)CC1)C(=O)N1CCC[C@H]1c1ncc(-c2ccc(C34CCC(c5cnc([C@@H]6CCCN6C(=O)[C@@H](NC(=O)N6CCC(O)CC6)C(C)C)[nH]5)(CC3)CC4)cc2)[nH]1 [compound 630],> 1000
5,CC(C)(C)OC(=O)N[C@H](C(=O)N1CCC[C@H]1c1ncc(-c2ccc(C34CCC(c5cnc([C@@H]6CCCN6C(=O)[C@H](NC(=O)OC(C)(C)C)c6ccccc6)[nH]5)(CC3)CC4)cc2)[nH]1)c1ccccc1 [compound 601],< 1
6,COC(=O)N[C@H](C(=O)N1CCC[C@H]1c1ncc(C23CCC(c4ccc(-c5cnc([C@@H]6CCCN6C(=O)[C@@H](NC(=O)N6CCC(O)CC6)C(C)C)[nH]5)cc4)(CC2)CC3)[nH]1)C(C)C [compound 649],< 1
7,COC(=O)N[C@H](C(=O)N1CCC[C@H]1c1ncc(-c2ccc(C34CCC(c5cnc([C@@H]6CCCN6C(=O)[C@@H](NC(=O)OC)C6CCCC6)[nH]5)(CC3)CC4)cc2)[nH]1)C1CCCC1 [compound 2094],< 1
8,O=C(N[C@@H](C(=O)N1CCC[C@H]1CNC(=O)C12CCC(c3ccc(-c4cnc([C@@H]5CCCN5C(=O)[C@H](NC(=O)N5CCOCC5)c5ccccc5)[nH]4)cc3)(CC1)CC2)c1ccccc1)N1CCOCC1 [compound 603],1 to 9.9
9,COC(=O)N[C@H](C(=O)N1CCC[C@H]1c1ncc(C23CCC(c4ccc(-c5cnc([C@@H]6CCCN6C(=O)[C@H](NC(=O)N6CCCCC6)C(C)C)[nH]5)cc4)(CC2)CC3)[nH]1)C(C)C [compound 2075],< 1
10,COC(=O)N[C@H](C(=O)N1CCC[C@H]1c1ncc(-c2ccc(C34CCC(c5cnc([C@@H]6CCCN6C(=O)[C@H](C(C)C)N(C)C(=O)OC)[nH]5)(CC3)CC4)cc2)[nH]1)C(C)C [compound 911],< 1
11,COC(=O)N[C@H](C(=O)N1CCC[C@H]1c1ncc(-c2ccc(C34CCC(c5cnc([C@@H]6CCCN6C(=O)[C@H](NC(=O)C6CC6)c6ccccc6)[nH]5)(CC3)CC4)cc2)[nH]1)C(C)C [compound 631],< 1
12,COC(=O)N[C@H](C(=O)N1CCC[C@H]1c1ncc(-c2ccc(C34CCC(c5cnc([C@@H]6CCCN6C(=O)[C@H](NC(=O)OC(C)(C)C)c6ccccc6)[nH]5)(CC3)CC4)cc2)[nH]1)C(C)C [compound 626],< 1
13,COC(=O)N[C@@H](C)C(=O)N1CCC[C@H]1c1ncc(-c2ccc(C34CCC(c5cnc([C@@H]6CCCN6C(=O)[C@@H](NC(=O)OC)C(C)C)[nH]5)(CC3)CC4)cc2)[nH]1 [compound 2081],< 1
14,COC(=O)N[C@H](C(=O)N1CCC[C@H]1c1ncc(-c2ccc(C34CCC(c5cnc([C@@H]6CCCN6C(=O)[C@H](NC6CCOCC6)C(C)C)[nH]5)(CC3)CC4)cc2)[nH]1)C(C)C [compound 2055],< 1
15,COC(=O)N[C@H](C(=O)N1CCC[C@H]1c1ncc(-c2ccc(C34CCC(c5cnc([C@@H]6CCCN6C(=O)[C@H](NC(=O)OC)c6ccccc6)[nH]5)(CC3)CC4)cc2)[nH]1)C(C)C [compound 624],< 1

# Same assay, conditions: Hepatitis C virus, Huh-7, 72 h, read-out: Inhibition of HCV genotype 1b, Table 7, 72 h incubation
row,SMILES,EC50 [nM]
1,COC(=O)N[C@@H](C(=O)N1CCC[C@H]1c1cnc(N2CCN(c3ccc(-c4cnc([C@@H]5CCCN5C(=O)[C@H](NC(=O)OC)c5ccccc5)[nH]4)cc3)C(=O)C2)[nH]1)c1ccccc1 [compound 2113],< 1

# Same assay, conditions: read-out: Inhibition of HCV genotype 1b, Table 5, 72 h incubation
row,SMILES,EC50 [nM]
1,COC(=O)N[C@H](C(=O)N1CCC[C@H]1c1ncc(-c2ccc(C34CCC(c5cnc([C@@H]6CCCN6C(=O)[C@@H](NC(=O)N6CCC(O)CC6)C(C)C)[nH]5)(CC3)CC4)cc2)[nH]1)C(C)C [compound 633],< 1
